In PubChem BioAssay (NCI):
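How tested: cells in 96-well plates exposed to compound for 48 hours at five concentrations. TGI denotes the concentration required for complete inhibition of growth.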

Legend:
Assay in all cases: NCI tumour cell line growth inhibition, 48 h
BT-549 breast = system: BT-549 breast
MDA-MB-435 = system: MDA-MB-435
DU-145 prostate = system: DU-145 prostate
MDA-MB-231 breast = system: MDA-MB-231 breast
RXF-631 renal = system: RXF-631 renal
T-47D breast = system: T-47D breast
HS 578T breast = system: HS 578T breast
P388/ADR leukemia = system: P388/ADR leukemia
P388 leukemia = system: P388 leukemia
NCI-H226 lung = system: NCI-H226 lung
SN12K1 renal = system: SN12K1 renal

SMILES | TGI (BT-549 breast) | TGI (MDA-MB-435) | TGI (DU-145 prostate) | TGI (MDA-MB-231 breast) | further results
COC(=O)Cc1c(C2C(CC(=O)OC)c3ccccc3N2C2OC(CO)C(O)C(O)C2O)[nH]c2ccccc12 (stereo not given) | > 100 µM | > 100 µM | > 100 µM | > 100 µM | 
CC(C)(C)CI |  |  |  |  | TGI (RXF-631 renal): > 100 µM
COc1ccc(-c2c3c(nc4nc(SCC(=O)c5ccc(Br)cc5)nc(N)c24)CCCC3)cc1OC | > 100 µM | > 100 µM | > 100 µM | > 100 µM | TGI (T-47D breast): > 100 µM; TGI (HS 578T breast): 28.6 µM
COc1nc(NC2OC(CO)C(O)C(O)C2O)c(N)c(=O)[nH]1 (stereo not given) |  |  |  |  | TGI (P388/ADR leukemia): > 100 µM; TGI (P388 leukemia): > 100 µM; TGI (NCI-H226 lung): > 31.6 µM; TGI (SN12K1 renal): > 100 µM
